From ChEMBL document CHEMBL4715894, “Design and synthesis of an anthranyl bridged optically active dinuclear iron(II)-ligand and evaluation of DNA-cleaving activity” (Bioorg Med Chem Lett, 2021)
The source made the active and inactive calls. The rule behind the calls is not given here.

Key:
Format in all cases: nucleic-acid assay
DNA [1] = assay: Induction of DNA cleavage in Escherichia coli ER2272 pUC19 plasmid DNA assessed as increase in relaxed circular DNA at 30 uM in presence of Fe2+ at 30 uM by ethidium bromide staining based densitometric method; details: time min <=15
DNA [2] = assay: Induction of DNA cleavage in Escherichia coli ER2272 pUC19 plasmid DNA assessed as linear DNA at 0.1 to 50 uM in presence of Fe2+ at >5 uM uM after 60 mins by ethidium bromide staining based densitometric method; details: dose 0.1-50 µM
DNA [3] = assay: Induction of DNA cleavage in Escherichia coli ER2272 pUC19 plasmid DNA assessed as decrease in supercoiled DNA at 0.1 to 50 uM in presence of Fe2+ at 10 uM after 60 mins by ethidium bromide staining based densitometric method relative to control; design: scale not given: the % may be the effect or the level left; details: dose 0.1-50 µM
dsDNA [4] = assay: Induction of DNA cleavage in pBluescript II SK+ DNA (unknown origin) assessed as cleaved in 5'-CT-3' sequence at 30 uM in presence of Fe2+ at 30 uM after 30 mins by PAGE based DNA sequencing analysis
DNA [5] = assay: Induction of DNA cleavage in Escherichia coli ER2272 pUC19 plasmid DNA assessed as decrease in supercoiled DNA at 30 uM in presence of Fe2+ at 30 uM by ethidium bromide staining based densitometric method; details: time min <=15
DNA [6] = assay: Induction of DNA cleavage in Escherichia coli ER2272 pUC19 plasmid DNA assessed as linear DNA at 30 uM in presence of Fe2+ at 30 uM up to 15 mins by ethidium bromide staining based densitometric method; details: time min <=15
DNA [7] = assay: Induction of DNA cleavage in Escherichia coli ER2272 pUC19 plasmid DNA assessed as decrease in supercoiled DNA at 0.1 to 50 uM in presence of Fe2+ at 0.1 to 5 uM after 60 mins by ethidium bromide staining based densitometric method; details: dose 0.1-50 µM
dsDNA [8] = assay: Induction of DNA cleavage in pBluescript II SK+ DNA (unknown origin) assessed as cleaved in 5'-AATTCCGGAA-3' sequence at 5 uM in presence of Fe2+ at 30 uM after 10 mins by PAGE based DNA sequencing analysis
DNA [9] = assay: Induction of DNA cleavage in Escherichia coli ER2272 pUC19 plasmid DNA assessed as decrease in supercoiled DNA at 0.1 to 50 uM in presence of Fe2+ at 30 to 50 uM after 60 mins by ethidium bromide staining based densitometric method; details: dose 0.1-50 µM
DNA [10] = assay: Induction of DNA cleavage in Escherichia coli ER2272 pUC19 plasmid DNA assessed as decrease in relaxed circular DNA at 0.1 to 50 uM in presence of Fe2+ at 30 to 50 uM after 60 mins by ethidium bromide staining based densitometric method; details: dose 0.1-50 µM
DNA [11] = assay: Induction of DNA cleavage in Escherichia coli ER2272 pUC19 plasmid DNA assessed as decrease in supercoiled DNA at 15 uM in presence of Fe2+ at 30 uM after 1 min by ethidium bromide staining based densitometric method relative to control
DNA [12] = assay: Induction of DNA cleavage in Escherichia coli ER2272 pUC19 plasmid DNA assessed as increase in relaxed circular DNA at 15 uM in presence of Fe2+ at 30 uM after 1 min by ethidium bromide staining based densitometric method
DNA [13] = assay: Induction of DNA cleavage in Escherichia coli ER2272 pUC19 plasmid DNA assessed as decrease in linear DNA at 15 uM in presence of Fe2+ at 30 uM <=15 min by ethidium bromide staining based densitometric method; details: time min <=15
DNA [14] = assay: Induction of DNA cleavage in Escherichia coli ER2272 pUC19 plasmid DNA assessed as decrease in relaxed circular DNA at 15 uM in presence of Fe2+ at 30 uM <=15 min by ethidium bromide staining based densitometric method; details: time min <=15
DNA [15] = assay: Induction of DNA cleavage in Escherichia coli ER2272 pUC19 plasmid DNA assessed as decrease in relaxed circular DNA at 0.1 to 50 uM in presence of Fe2+ at 10 uM after 60 mins by ethidium bromide staining based densitometric method; details: dose 0.1-50 µM
DNA [16] = assay: Induction of DNA cleavage in Escherichia coli ER2272 pUC19 plasmid DNA assessed as increase in linear DNA at 15 uM in presence of Fe2+ at 30 uM after 1 min by ethidium bromide staining based densitometric method
dsDNA [17] = assay: Induction of DNA cleavage in pBluescript II SK+ DNA (unknown origin) assessed as cleaved in 5'-TTAATT-3' sequence at 5 uM in presence of Fe2+ at 30 uM after 10 mins by PAGE based DNA sequencing analysis
DNA [18] = assay: Induction of DNA cleavage in Escherichia coli ER2272 pUC19 plasmid DNA assessed as decrease in linear DNA at 0.1 to 50 uM in presence of Fe2+ at 30 to 50 uM after 60 mins by ethidium bromide staining based densitometric method; details: dose 0.1-50 µM

N[C@@H]1CCCC[C@H]1N(Cc1ccccn1)Cc1ccccn1 was tested, and the Activity (DNA [1]) was “Active”, the Activity (DNA [2]) was “Active” and the Activity (DNA [3]) was 100%. The Activity (dsDNA [4]) was “Active”, the Activity (DNA [5]) was “Active” and the Activity (DNA [6]) was “inactive”. For the same molecule, the Activity (DNA [7]) was “Active”.

With c1ccc(CN(Cc2ccccn2)[C@@H]2CCCC[C@H]2NCc2cccc3cc4cccc(CN[C@@H]5CCCC[C@H]5N(Cc5ccccn5)Cc5ccccn5)c4cc23)nc1 the Activity (dsDNA [8]) was “Active”, the Activity (DNA [9]) was “Active” and the Activity (DNA [10]) was “Active”. For the same molecule, the Activity (DNA [11]) was “Active”, the Activity (DNA [12]) was “Active” and the Activity (DNA [13]) was “Active”. For the same molecule, the Activity (DNA [14]) was “Active”, the Activity (DNA [15]) was “Active” and the Activity (DNA [16]) was “Active”. For the same molecule, the Activity (DNA [2]) was “Active”, the Activity (DNA [3]) was “Active” and the Activity (dsDNA [17]) was “Active”. The Activity (DNA [18]) was “Active”.

For N[C@H]1CCCC[C@@H]1N(Cc1ccccn1)Cc1ccccn1, the Activity (DNA [2]) was “Active”, the Activity (DNA [3]) was 100% and the Activity (dsDNA [4]) was “Active”. For the same molecule, the Activity (DNA [7]) was “Active”.

c1ccc(CN(Cc2ccccn2)[C@H]2CCCC[C@@H]2NCc2cccc3cc4cccc(CN[C@H]5CCCC[C@@H]5N(Cc5ccccn5)Cc5ccccn5)c4cc23)nc1 was tested, and the Activity (dsDNA [8]) was “Active”, the Activity (DNA [9]) was “Active” and the Activity (DNA [10]) was “Active”. For the same molecule, the Activity (DNA [15]) was “Active”, the Activity (DNA [2]) was “Active” and the Activity (DNA [3]) was “Active”. The Activity (dsDNA [17]) was “Active” and the Activity (DNA [18]) was “Active”.
